Reference: PubChem BioAssay AID588764 (Broad Institute, 2011)
Results filed as inconclusive are left out. Activity calls are given as the source filed them. How the calls were made is not given here.

Target: Histone acetyltransferase RTT109 (Candida albicans (strain SC5314 / ATCC MYA-2876)) (UniProt Q5AAJ8)
Experiment: C. albicans Rtt109 HAT inhibition curves – biochemical, cherry-picked hits, plate reader, dose response (AID 588764)
Conditions: Rtt109/Vps75 HAT activity; for activity change, negative = inhibition: at 19.5 µM (top of the series)

Chain of Histone acetyltransferase RTT109 (Candida albicans (strain SC5314 / ATCC MYA-2876)) (Q5AAJ8 whole entry, looked up): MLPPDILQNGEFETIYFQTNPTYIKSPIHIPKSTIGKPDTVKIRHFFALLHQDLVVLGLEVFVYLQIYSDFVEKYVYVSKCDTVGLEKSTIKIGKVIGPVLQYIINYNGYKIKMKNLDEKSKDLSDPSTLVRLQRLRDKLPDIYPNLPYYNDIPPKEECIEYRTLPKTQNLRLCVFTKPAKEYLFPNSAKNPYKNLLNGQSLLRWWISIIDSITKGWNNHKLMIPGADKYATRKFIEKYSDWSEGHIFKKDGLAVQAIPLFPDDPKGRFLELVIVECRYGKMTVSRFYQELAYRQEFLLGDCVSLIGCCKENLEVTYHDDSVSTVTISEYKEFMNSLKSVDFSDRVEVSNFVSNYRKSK

| SMILES | AC50 | activity change, negative = inhibition |
| --- | --- | --- |
| Nc1nnc(SC2CC(=O)N(c3ccccc3)C2=O)s1 (stereo not drawn) | 13.6 µM | – |
| COc1cc(SC#N)ccc1N=Cc1c(C)[nH]n(-c2ccc(C)c(C)c2)c1=O | – | inactive |
| CCCCNS(=O)(=O)c1ccc(NC(=O)Cc2ccccc2[N+](=O)[O-])cc1 | – | inactive |
| CCOC(=O)c1c(CNCCN(CC)CC)n(C)c2cc(Br)c(OC)cc12 | – | inactive |
| O=C(NCCCN1CCCC1=O)c1ccc(OC(F)(F)F)cc1 | – | inactive |
| Cc1cccc(-n2c(SCC(N)=O)nc3c(c2=O)C2(CCCCC2)Cc2ccccc2-3)c1 | – | inactive |
| CCCC[n+]1c(C)sc2cc(OC)ccc21 | – | inactive |
| O=C(CSC1=NC2(CCCCC2)N=C1c1ccccc1)Nc1ccc2c(c1)OCCO2 | – | inactive |
| O=C(COC(=O)c1cnccn1)c1ccc([N+](=O)[O-])cc1 | 11.4 µM | – |
| O=C(CNC(=O)c1ccc(Br)o1)NC12CC3CC(CC(C3)C1)C2 | – | inactive |
| O=C1Cc2ccccc2Sc2c(OCCN3CCCCC3)cccc21 | – | inactive |
| Cc1cc(NC(=O)CCCn2nc([N+](=O)[O-])c(Cl)c2C)no1 | – | inactive |
| COC(=O)c1ccc(N2C(=O)CC(SCC(=O)Nc3ccc(OC)cc3)C2=O)cc1 (stereo not drawn) | – | inactive |
| Cc1cc(C)cc(NC(=O)NC(C)C2CCCO2)c1 (stereo not drawn) | – | inactive |
| COc1ccc(-[n+]2c(C)cc(/C=C3\Sc4ccccc4N3C)cc2C)cc1 | – | inactive |
| CC(=O)N1CCN(c2ncnc3ccccc23)CC1 | – | inactive |
| Oc1ccccc1CNc1cnc2ccccc2c1 | – | inactive |
| Cc1ccc2nc(-c3ccc(NC(=S)NC4CC(C)(C)NC(C)(C)C4)cc3)sc2c1 | – | inactive |
| O=C(CSc1nnc(Cc2cccs2)n1C1CCCCC1)N1CCN(C(=O)c2ccco2)CC1 | – | inactive |
| Cc1ccc(NC(=O)Cn2sc3nc(C)cc(C)c3c2=O)c(Cl)c1 | 0.831 µM | – |
| COc1ccc(NC(=O)c2nc3ccccc3s2)cc1 | – | inactive |

| SMILES | AC50 | activity change, negative = inhibition |
| --- | --- | --- |
| C1CCC(C(CC2CCCCN2)C2CCCCC2)CC1 (stereo not drawn) | – | inactive |
| Cc1ccc(C#N)c(SCc2nnc(-c3ccc(Cl)cc3)o2)n1 | – | inactive |
| COc1ccc(NC(=O)Nc2nnc(-c3cccs3)s2)cc1 | – | inactive |
| O=C(Nc1ccc(F)cc1F)N1CCCC(c2nc(-c3ccc(F)cc3)no2)C1 (stereo not drawn) | – | inactive |
| CCOc1ccc(N2C(=O)CSC2c2ccncc2)cc1 (stereo not drawn) | – | inactive |
| CCN(c1ccc(OC)cc1)S(=O)(=O)c1nnc(NC(=O)COc2ccc(C)cc2)s1 | – | inactive |
| C#CCOCCOCCOCCNc1nc(N2CCN(C(=O)[C@H](CCCCN)n3cc([C@@H](N)CC(C)C)nn3)CC2)nc(N2CCN(C(=O)[C@H](CCCCN)n3cc([C@@H](N)CC(C)C)nn3)CC2)n1 | – | inactive |
| Cc1ccc2c(c1)sc(C)[n+]2CCCS(=O)(=O)[O-] | – | inactive |
| C[C@]12CC[C@@H]3c4ccc(O)c(O)c4CC[C@H]3[C@@H]1CC[C@@H]2O | 10 µM | – |
| CCOC(=O)/C=C/S(=O)(=O)c1ccc(NC(C)=O)cc1 | 5.88 µM | – |
| O=S(=O)(NN1CCOCC1)c1ccc(Br)cc1 | 11.6 µM | – |
| CN(C)c1ccc(/C=C/c2cc[n+](C)c3ccccc23)cc1 | – | inactive |
| N#C/C(=C\c1ccncc1)c1nc2c(s1)CCCC2 | – | inactive |
| Cc1cccc(N2C(S)=C(C#N)C(=O)NC2c2cccs2)c1 (stereo not drawn) | 11.7 µM | – |
| Cc1ccc(C(=O)NCCCNC(=O)COc2ccc(C)c(C)c2)cn1 | – | inactive |
| COc1cc2nc(NCCCN3CCN(C)CC3)n3nc(-c4ccccc4)nc3c2cc1OC | – | inactive |
| C#CCOCCOCCOCCNc1nc(N2CCN(C(=O)C([C@@H](C)O)n3cc([C@@H](N)CCCCN)nn3)CC2)nc(N2CCN(C(=O)C([C@@H](C)O)n3cc([C@@H](N)CCCCN)nn3)CC2)n1 (stereo partly drawn) | – | inactive |
| O=C(CCC(=O)OCC(=O)c1ccc([N+](=O)[O-])cc1)Nc1ccccc1Cl | 8.57 µM | – |
| CC(C)CCNC(=O)C1CCN(S(=O)(=O)c2ccc3c(c2)CC(C)N3C(=O)C2CCC2)CC1 (stereo not drawn) | – | inactive |
| O=C(CNC(=O)c1cccc(Br)c1)N/N=C/c1cccs1 | – | inactive |
| CC1CCC2(CC1)NC(=S)N(c1ccccc1)N2 (stereo not drawn) | – | inactive |

| SMILES | AC50 | activity change, negative = inhibition |
| --- | --- | --- |
| CC[n+]1c(C)sc2c(C)cc(C)cc21 | – | inactive |
| CC(C)c1ccc(NC(=O)NC(C)c2ccc3c(c2)OCO3)cc1 (stereo not drawn) | – | inactive |
| CCCCCCCCCCn1c2c(c(=N)c3c1CCC3)CCC2 | – | inactive |
| CCN1CCN(C(c2cccnc2)c2cc(Cl)c3cccnc3c2O)CC1 (stereo not drawn) | 13.9 µM | – |
| Clc1ccc(COC(Cn2ccnc2)c2ccc(Cl)cc2Cl)c(Cl)c1 (stereo not drawn) | – | inactive |
| CCN(CC)C(=S)SSC(=S)N(CC)CC | 3.26 µM | – |
| CN(C)c1ccc(/C=C/c2ccc3c4ccccc4ccc3[n+]2-c2ccccc2)cc1 | – | inactive |
| Cc1c(C(=O)Nc2ccc(S(=O)(=O)N(C)C3CCN(C)CC3)cc2)oc2c(Cl)cccc12 | – | inactive |
| COc1ccccc1C(=O)NCC(=O)N=Nc1c(O)n(C(C)C)c2ccccc12 | – | inactive |
| C=CCOc1ccc(/C(O)=C2\C(=O)C(=O)N(CCOC)C2c2cccnc2)cc1 (stereo not drawn) | – | inactive |
| CCOc1ccccc1N1CCN(C(=O)c2ccncc2)CC1 | – | inactive |
| O=C(CCc1nnc(C2(c3ccc(Cl)cc3)CCC2)o1)NCCCn1cccn1 | – | inactive |
| CCSS(=O)(=O)c1cccc2cccnc12 | 5.16 µM | – |
| O=C(C1CCCO1)N1CCN(C(=S)Nc2ccc(Cl)cc2Cl)CC1 (stereo not drawn) | – | inactive |
| Clc1nc(NCc2cccnc2)nc(N2CCOCC2)n1 | – | inactive |
| Cc1ccc(S(=O)(=O)CCC(=O)c2cccc([N+](=O)[O-])c2)cc1 | 8.29 µM | – |
| COc1cccc(NC(=O)CSc2nc3c(sc4ccccc43)c(=O)n2CCN(C)C)c1 | – | inactive |
| CCOC(=O)C(C)N1C(=O)S/C(=C/c2ccc3c(c2)n(C)c(=O)n3C)C1=O (stereo not drawn) | – | inactive |
| Cc1cc(C(=O)Nc2ccncc2)c(C)o1 | – | inactive |
| COc1cccc(/C=C2\SC(=S)N(C(C)C(=O)NC3C=CS(=O)(=O)C3)C2=O)c1 (stereo not drawn) | – | inactive |
| Cn1c(SCC(=O)NC2CCCCC2)nnc1-c1cccnc1 | – | inactive |

| SMILES | AC50 | activity change, negative = inhibition |
| --- | --- | --- |
| COCCNS(=O)(=O)c1ccc2c(c1)C(=NO)c1cc(S(=O)(=O)NCCOC)ccc1-2 | – | inactive |
| CCOC(=O)C1=C(C)N=c2s/c(=C/c3ccc(OCC(=O)O)cc3)c(=O)n2C1c1cc(OC)c(OC)c(OC)c1 (stereo not drawn) | – | inactive |
| COc1ccc(/C=C/C(=O)O)cc1S(=O)(=O)NCc1ccco1 | – | inactive |
| O=c1[nH]c2ccccc2n2c(-c3ccccc3)nnc12 | 1.98 µM | – |
| COc1ccc(OC)c(/C=C2\SC(=S)N(C(C(=O)O)c3ccccc3)C2=O)c1 (stereo not drawn) | – | inactive |
| Cc1cccc(NC(=O)CCN2C(=O)c3ccccc3C2=O)c1 | – | inactive |
| Cc1cc(C)c2sc(C)[n+](CCCS(=O)(=O)[O-])c2c1 | – | inactive |
| Oc1c(Cl)cc(Cl)c(Cl)c1Cc1c(O)c(Cl)cc(Cl)c1Cl | 5.48 µM | – |
| COCc1ccc(CN2CCC(n3nccc3NC(=O)C(OC)c3ccccc3)CC2)o1 (stereo not drawn) | – | inactive |
| Cc1ccc(C(=O)NCCNC(=O)COc2ccccc2Cl)cn1 | – | inactive |
| CCCn1cc(S(=O)(=O)CC(=O)NC2CCCCC2)c2ccccc21 | – | inactive |
| CN1CCN(S(=O)(=O)c2cccc(C(=O)N(Cc3ccccc3)c3ccccc3)c2)CC1 | – | inactive |
| CCCCCCCCCCCCn1ccc(=N)cc1 | – | inactive |
| Cc1ccc2nc(N(CCCN(C)C)C(=O)c3ccc4c(c3)CCCC4)sc2c1 | – | inactive |
| Cn1c(=O)c2c(nc(NC3CCCCC3)n2CC(=O)C23CC4CC(CC(C4)C2)C3)n(C)c1=O | – | inactive |
| O=S(=O)(Nc1ccc(O)c(Sc2nc3ccccc3s2)c1)c1cccc2ccccc12 | – | inactive |
| CC(=O)Nc1ccc(OCc2cccc([N+](=O)[O-])c2)cc1 | – | inactive |
| CN(C(=O)c1ccc(N2CCCCC2)c([N+](=O)[O-])c1)C1(C)CCS(=O)(=O)C1 (stereo not drawn) | – | inactive |
| COc1cccc(C(=O)NNC(=O)CCC(=O)O)c1 | – | inactive |
| CC1Sc2ccccc2N(CC(=O)N(C(C)C)C(C)C)C1=O (stereo not drawn) | – | inactive |
